Test results: BindingDB's records for doi:10.3109/14756366.2011.555944 (Aristotle University of Thessaloniki, 2011)

Target: T1, Seed linoleate 13S-lipoxygenase-1 (Glycine max, UniProt P08170)
T1 sequence (P08170 whole entry): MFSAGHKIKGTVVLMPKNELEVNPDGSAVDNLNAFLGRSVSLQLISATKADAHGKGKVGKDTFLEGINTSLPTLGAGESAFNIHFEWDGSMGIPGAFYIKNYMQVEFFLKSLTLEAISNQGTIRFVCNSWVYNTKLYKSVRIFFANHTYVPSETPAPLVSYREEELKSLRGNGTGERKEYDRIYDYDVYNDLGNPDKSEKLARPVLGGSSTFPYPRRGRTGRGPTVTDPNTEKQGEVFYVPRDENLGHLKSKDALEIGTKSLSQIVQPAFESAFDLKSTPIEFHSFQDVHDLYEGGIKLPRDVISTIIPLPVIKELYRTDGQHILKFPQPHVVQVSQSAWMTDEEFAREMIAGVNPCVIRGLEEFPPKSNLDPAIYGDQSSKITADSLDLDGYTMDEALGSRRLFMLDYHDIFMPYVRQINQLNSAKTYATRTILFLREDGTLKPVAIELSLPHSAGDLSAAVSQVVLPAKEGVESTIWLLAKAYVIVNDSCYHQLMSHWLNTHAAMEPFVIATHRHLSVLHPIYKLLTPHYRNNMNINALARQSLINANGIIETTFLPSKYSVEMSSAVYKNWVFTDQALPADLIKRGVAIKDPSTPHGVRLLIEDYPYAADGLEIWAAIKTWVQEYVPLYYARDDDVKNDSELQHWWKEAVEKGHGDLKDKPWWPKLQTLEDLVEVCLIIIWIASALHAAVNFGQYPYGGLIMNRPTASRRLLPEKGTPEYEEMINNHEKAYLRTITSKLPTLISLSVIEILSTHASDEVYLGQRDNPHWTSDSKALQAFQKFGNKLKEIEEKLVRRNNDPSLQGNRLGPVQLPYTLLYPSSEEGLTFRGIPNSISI
Test: In Vitro LOX Inhibition Assay
Conditions: 25 °C

IC50 [µM] | SMILES
180 | Cc1cc(=O)oc2c3c(ccc12)OCC=CC3 [4-Methyl-8,11-dihydro-2H-oxepino[2,3-h]chromen-2-one (7b)]
310 | O=c1ccc2ccc3c(c2o1)CC=CCO3 [8,11-Dihydro-2H-oxepino[2,3-h]chromen-2-one (7a)]
